From BindingDB's records for PubMed 36793429 (Therachem Research Medilab, 2023)

Biological target: Coagulation factor XI (Homo sapiens) (UniProt P03951)
Experiment: Inhibition of human factor 11a using GPR-AFC as substrate preincubated for 30 mins followed by substrate addition and measured after 60 mins by fluorescence based analysis

Sequence of Coagulation factor XI (Homo sapiens) (P03951 whole entry, looked up): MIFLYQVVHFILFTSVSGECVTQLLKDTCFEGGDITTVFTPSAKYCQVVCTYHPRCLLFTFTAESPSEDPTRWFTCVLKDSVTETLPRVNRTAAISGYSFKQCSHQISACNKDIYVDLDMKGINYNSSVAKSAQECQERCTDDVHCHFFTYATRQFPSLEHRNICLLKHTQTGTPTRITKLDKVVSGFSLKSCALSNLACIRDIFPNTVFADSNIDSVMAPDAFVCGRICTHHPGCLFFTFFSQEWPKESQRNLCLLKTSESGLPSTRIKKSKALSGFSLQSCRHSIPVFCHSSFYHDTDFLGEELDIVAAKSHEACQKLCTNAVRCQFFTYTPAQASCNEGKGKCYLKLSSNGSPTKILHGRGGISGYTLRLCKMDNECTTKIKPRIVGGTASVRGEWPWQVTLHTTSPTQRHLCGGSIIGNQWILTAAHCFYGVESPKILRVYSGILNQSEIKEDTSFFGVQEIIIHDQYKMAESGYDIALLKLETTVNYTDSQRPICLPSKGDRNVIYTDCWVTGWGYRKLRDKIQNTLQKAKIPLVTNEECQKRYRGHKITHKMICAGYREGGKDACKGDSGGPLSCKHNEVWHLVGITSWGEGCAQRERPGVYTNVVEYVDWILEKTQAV

| Structure (SMILES) | IC50 [µM] |
| --- | --- |
| C[C@H]1CCN(c2ccc(CNC(=O)c3cnnc(N4CC[C@]5(C4)OC(=O)Nc4ccc(Cl)c(F)c45)c3)cn2)C1 | 7.44 |
| CN1CCCC1c1ccc(CNC(=O)c2cnnc(N3CC[C@]4(C3)OC(=O)Nc3ccc(Cl)c(F)c34)c2)cc1 (stereo not given in full) | 10 |
| Cc1cnn(Cc2ccc(CNC(=O)c3cnnc(N4CC[C@]5(C4)OC(=O)Nc4ccc(Cl)c(F)c45)c3)cc2)c1 | 10 |
| Cc1cnn(Cc2ccc(CNC(=O)c3cncc(N4CC[C@]5(C4)OC(=O)Nc4ccc(Cl)c(F)c45)c3)cn2)c1 | 10 |
| O=C1Nc2ccc(Cl)c(F)c2[C@]2(CCN(c3cncc(C(=O)NCc4ccc(Cn5ccccc5=O)nc4)n3)C2)O1 | 10 |

Further molecules by falling IC50, results first:

| IC50 [µM] | Structure (SMILES) |
| --- | --- |
| 10 | O=C1Nc2ccc(Cl)c(F)c2[C@]2(CCN(c3cncc(C(=O)NCc4ccc(N5CCC5)nc4)n3)C2)O1 |
| 10 | CN1CCN(c2ccc(CNC(=O)c3cncc(N4CC[C@]5(C4)OC(=O)Nc4ccc(Cl)c(F)c45)n3)cn2)CC1 |
| 10 | N#CC1(F)CN(Cc2ccc(CNC(=O)c3cnnc(N4CC[C@]5(C4)OC(=O)Nc4ccc(Cl)c(F)c45)c3)cc2)C1 |
| 10 | O=C1Nc2ccc(Cl)c(F)c2[C@]2(CCN(c3cncc(C(=O)NCc4ccc(Cn5ccccc5=O)nc4)c3)C2)O1 |
| 10 | C[C@H]1CCN(c2ccc(CNC(=O)c3cncc(N4CC[C@]5(C4)OC(=O)Nc4ccc(Cl)c(F)c45)n3)cn2)C1 |
